Reference: patent US4910216A, “2-(3,5-dimethyl-4-hydroxyphenyl)indole derivatives” (Teikoku Hormone Mfg. Co., Ltd., priority 1988, dated 1990)

Tests used:
lipoxygenase [1] = settings: known inhibitors; cited from earlier work
cyclooxygenase = settings: known inhibitors; cited from earlier work
lipoxygenase [2] = test: Inhibition of leukotriene formation (LTC4, LTD4, LTE4 in pleural exudate, HPLC) in A23187-induced pleurisy, oral administration; assay type: in vivo, rats (Wistar-strain, male); settings: rat pleural exudate, 3 mg/kg p.o., 60 minutes before intrapleural A23187
Protocol: (1) Preparation of A23187 -induced pleurisy
Under ether anaesthesia, 0.2 ml of 100,μM […] (prepared by adding injectable distilled water in a 2mM A23187 ethanol solution) was administered intrapleurally to rats (Wistar-strain, male, 11 weeks old). Twenty minutes after the administration, the rats were exsanguinated and the pleural exudate was harvested. The test compound was suspended or dissolved in a 0.5% carboxymethyl cellulose solution containing 2% Tween, and orally administered to the animals 60 minutes before the intrapleural administration of A23187.
(2) Measurement of the leukotrienes [LTC4, LTD4 and LTE4 ]
To the exudate obtained in (1) was added 4 times its volume of ice-cooled ethanol. They were well mixed, and then centrifuged. The supernatant was concentrated under reduced pressure, and 1.0 ml of 0.01M acetate buffer (pH 5.9) was added to the residue. The solution was added to SEP-PAK® (C18) and leukotrienes were partially purified. Fractions eluted with 5 ml of 60% ethanol/0.01M acetate buffer (pH 5.9) were collected, and the solvent was evaporated under reduced pressure.
The residue was dissolved in 1 ml of methanol, and the solution was filtered on a filter having a pore size of 0.45 microns, and evaporated under reduced pressure. The residue was dissolved in the mobile phase (acetonitrile/water/acetic acid/triethylamine, 35/63.5/1.5/2.2) used in high performance liquid chromatography (HPLC) and subjected to analysis by HPLC. A calibration curve was obtained by a fixed amount of PGB2 as an internal standard substance and standard LTC4, LTD4 and LTE4 were added to a buffer, followed by the same extraction, partial purification and HPLC analysis as above. The amounts of the leukotrienes in the sample were calculated from the calibration curve.
The activity of 2-(4-hydroxy-3,5-dimethylphenyl)-5-methoxy-3-methylindole (compound A) which is disclosed in Example 1 of U.S. Pat. No. 4,695,381 and was selected as an active control is also shown below.

SMILES | lipoxygenase inhibition (lipoxygenase [1]) | cyclooxygenase inhibition (lack of specificity) (cyclooxygenase) | percent inhibition of LTC4 + LTD4 + LTE4 (lipoxygenase [2]) [%] | LTC4 + LTD4 + LTE4 (lipoxygenase [2]; mean ± S.E.M., vehicle 414.82 ± 49.81 ng) [ng]
NC1=NN(c2cccc(C(F)(F)F)c2)CC1 [BW755C, 3-amino-1-(3-trifluoromethylphenyl)-2-pyrazoline] | inhibit not only lipoxygenase | lack specificity and inhibit not only lipoxygenase but also cyclooxygenase |  | 
COc1ccc2[nH]c(-c3cc(C)c(OC(=O)CCC(=O)O)c(C)c3)c(C)c2c1 [Example 1] |  |  | 53.4 | 193.30 ± 28.37
CCCCCC#CCC#CCC#CCC#CCCCC(=O)O [5,8,11,14-eicosatetraynoic acid] | inhibit not only lipoxygenase | lack specificity and inhibit not only lipoxygenase but also cyclooxygenase |  | 
COc1ccc2[nH]c(-c3cc(C)c(O)c(C)c3)c(C)c2c1 [Compound A, 2-(4-hydroxy-3,5-dimethylphenyl)-5-methoxy-3-methylindole] |  |  | 32.0 | 
